Each block holds one compound with its values, some of them ahead of it.
Columns and labels:
Format in all cases: cell-based
[1] = tested on: NCIH510A (SCLC) cell line; assay: Cell viability of NF1-mutant tumor cell line NCIH510A (MTT or AlamarBlue); conditions: 10 days treatment; for EC50: Homo sapiens, NCI-H510A, 240 h, NF1 p. D2184G/p. L2618L
Experimental: (§1) Mycoplasma-free tumor cell lines from different tumor types carrying mutations in the NF1 gene (see Table 1) were seeded in 50 μl/well of complete medium (as described in Table 2, all reagents from Thermo Fisher) in 96-well plates at the optimal cell density to ensure log-phase growth throughout the duration of the experiment (see Table 2). The day after seeding, 50 μl of medium containing 9 serial dilutions (1:3) of 2×-concentrated iadademstat (LSD1 inhibitor; used as the dihydrochloride salt) were added to the cells to obtain 100 μl of cells treated with 1×-concentrated compound at each dilution. Additionally, the effect of other LSD1 inhibitors, i.e. bomedemstat (bis-tosylate salt) and pulrodemstat (besylate salt), was likewise evaluated in a subset of these tumor cell lines (sNF96.2, sNF02.2, MOLM13 and NCIH510A).
(§2) Each experimental condition was tested in technical triplicates, including medium-only wells and vehicle-treated controls for background correction and normalization, respectively. After treatment, cells were incubated at 37° C. in a humidified and controlled 5% CO2 atmosphere (see Table 2 for duration of treatment according to the growth curve of each cell line and number of cells seeded) and compound and medium refreshment was performed by adding 50 μl of medium supplemented with 1×-concentrated compound at each corresponding dilution when the duration of the treatment exceeded 4 days of drug incubation (see Table 2). After treatment, cell viability was evaluated using either the MTT assay (Sigma-Aldrich) or AlamarBlue™ Cell viability reagent (Life Technologies), following manufacturer's instructions. Background was calculated as the mean of the values of medium-only controls and subtracted from each data point. The average of background-corrected technical triplicates was calculated and normalized by the mean of vehicle-treated controls (corresponding to 100% of viability). Data were analyzed using GraphPad PRISM® version 9.0.1 (GraphPad Software, Inc., La Jolla, CA/USA) to calculate the best-fitting curves and the EC50 values (corresponding to the concentration of compound at which a half (50%) maximal effect is obtained; lower EC50 values thus indicate greater potency).

MOLM13 (AML) cell line = assay: Cell viability of NF1-mutant tumor cell line MOLM13 (MTT or AlamarBlue); conditions: 4 days treatment; for EC50: Homo sapiens, MOLM-13, 96 h, NF1 p. E1720D
Experimental: as §1, §2

[2] = tested on: sNF02.2 (MPNST) cell line; assay: Cell viability of NF1-mutant tumor cell line sNF02.2 (MTT or AlamarBlue); conditions: 6 days treatment; for EC50: 144 h, NF1 c. 4868A > T
Experimental: as §1, §2

[3] = tested on: hTERT ipnNF95.11c (plexiform neurofibroma) cell line; assay: Cell viability of NF1-mutant tumor cell line hTERT ipnNF95.11c (MTT or AlamarBlue); conditions: 7 days treatment
Experimental: as §1
(§3) Each experimental condition was tested in technical triplicates, including medium-only wells and vehicle-treated controls for background correction and normalization, respectively. […] After treatment, cell viability was evaluated using either the MTT assay (Sigma-Aldrich) or AlamarBlue™ Cell viability reagent (Life Technologies), following manufacturer's instructions. Background was calculated as the mean of the values of medium-only controls and subtracted from each data point. […]

[4] = tested on: sNF96.2 (MPNST) cell line; assay: Cell viability of NF1-mutant tumor cell line sNF96.2 (MTT or AlamarBlue); conditions: 6 days treatment
Experimental: as §1, §3

MOLT4 (ALL) cell line = assay: Cell viability of NF1-mutant tumor cell line MOLT4 (MTT or AlamarBlue); conditions: 10 days treatment
Experimental: as §1, §3

[5] = tested on: A204 (rhabdoid tumor) cell line; assay: Cell viability of NF1-mutant tumor cell line A204 (MTT or AlamarBlue); conditions: 6 days treatment
Experimental: as §1, §3

[6] = tested on: MPNST-NF1-18b (MPNST) cell line; assay: Cell viability of NF1-mutant tumor cell line MPNST-NF1-18b (MTT or AlamarBlue); conditions: 6 days treatment
Experimental: as §1, §3

[7] = tested on: hTERT ipNF95.11b C (plexiform neurofibroma) cell line; assay: Cell viability of NF1-mutant tumor cell line hTERT ipNF95.11b C (MTT or AlamarBlue); conditions: 7 days treatment
Experimental: as §1, §3

[8] = tested on: MDAMB231 (TN breast cancer) cell line; assay: Cell viability of NF1-mutant tumor cell line MDAMB231 (MTT or AlamarBlue); conditions: 4 days treatment
Experimental: as §1, §3

[9] = tested on: MHHES1 (Ewing's sarcoma) cell line; assay: Cell viability of NF1-mutant tumor cell line MHHES1 (MTT or AlamarBlue); conditions: 6 days treatment
Experimental: as §1, §3

[10] = tested on: TC71 (Ewing's sarcoma) cell line; assay: Cell viability of NF1-mutant tumor cell line TC71 (MTT or AlamarBlue); conditions: 6 days treatment
Experimental: as §1, §3

[11] = tested on: DAUDI (Burkitt's lymphoma) cell line; assay: Cell viability of NF1-mutant tumor cell line DAUDI (MTT or AlamarBlue); conditions: 4 days treatment
Experimental: as §1, §3

[12] = tested on: RD (rhabdomyosarcoma) cell line; assay: Cell viability of NF1-mutant tumor cell line RD (MTT or AlamarBlue); conditions: 6 days treatment
Experimental: as §1, §3

NCIH446 (SCLC) cell line = assay: Cell viability of NF1-mutant tumor cell line NCIH446 (MTT or AlamarBlue); conditions: 10 days treatment
Experimental: as §1, §3

- EC50 [1]: 1.73 nM
- EC50 (MOLM13 (AML) cell line): 0.82 nM
- EC50 [2]: 0.166 nM
Compound: COc1ccc(-c2c(-c3ccc(C#N)c(F)c3)nc(N3CCC(N)CC3)n(C)c2=O)cc1F [Pulrodemstat, 4-[2-(4-aminopiperidin-1-yl)-5-(3-fluoro-4-methoxyphenyl)-1-methyl-6-oxo-1,6-dihydropyrimidin-4-yl]-2-fluorobenzonitrile]

- EC50 [1]: 0.16 nM
- EC50 ([3]; 168 h, NF1 c. 1756delACTA): 0.841 nM
- EC50 ([4]; 144 h, NF1 c. 3683delC + LOH): 0.042 nM
- EC50 (MOLT4 (ALL) cell line; Homo sapiens, MOLT-4, 240 h, NF1 p. G1502G/ NS): 0.795 nM
- EC50 (MOLM13 (AML) cell line): 0.158 nM
- EC50 ([5]; Homo sapiens, 144 h, NF1 p. L1274F): 0.1 nM
- EC50 ([6]; 144 h, NF1 SNV at intron 14 + LOH): 0.025 nM
- EC50 ([7]; 168 h, NF1 c. 1756delACTA/ LOH): 0.14 nM
- EC50 [2]: 0.02 nM
Compound: N[C@H]1CC[C@H](N[C@@H]2C[C@H]2c2ccccc2)CC1 [Iadademstat, (trans)-N1-((1R,2S)-2-phenylcyclopropyl)cyclohexane-1,4-diamine]
- Response (classification according to viability reduction) [1]: Strong (strong response (viability reduction>30%))
- Response (classification according to viability reduction) [3]: Strong (strong response (viability reduction>30%))
- Response (classification according to viability reduction) [4]: Strong (strong response (viability reduction>30%))
- Response (classification according to viability reduction) (MOLT4 (ALL) cell line): Strong (strong response (viability reduction>30%))
- Response (classification according to viability reduction) (MOLM13 (AML) cell line): Strong (strong response (viability reduction>30%))
- Response (classification according to viability reduction) [5]: Strong (strong response (viability reduction>30%))
- Response (classification according to viability reduction) [6]: Strong (strong response (viability reduction>30%))
- Response (classification according to viability reduction) [7]: Medium (medium response (viability reduction>15% and <30%))
- Response (classification according to viability reduction) [2]: Medium (medium response (viability reduction>15% and <30%))
- Response (classification according to viability reduction) [8]: Low (low response (viability reduction<15%))
- Response (classification according to viability reduction) [9]: Low (low response (viability reduction<15%))
- Response (classification according to viability reduction) [10]: Low (low response (viability reduction<15%))
- Response (classification according to viability reduction) [11]: Low (low response (viability reduction<15%))
- Response (classification according to viability reduction) [12]: Low (low response (viability reduction<15%))
- Response (classification according to viability reduction) (NCIH446 (SCLC) cell line): Low (low response (viability reduction<15%))

- EC50 [1]: 10.5 nM
- EC50 (MOLM13 (AML) cell line): 5.38 nM
- EC50 [2]: 0.094 nM
Compound: CN1CCN(C(=O)[C@H](CCCN[C@@H]2C[C@H]2c2ccc(F)cc2)NC(=O)c2ccc(-n3ccnn3)cc2)CC1 [Bomedemstat, N-[(2S)-5-{[(1R,2S)-2-(4-fluorophenyl)cyclopropyl]amino}-1-(4-methylpiperazin-1-yl)-1-oxopentan-2-yl]-4-(1H-1,2,3-triazol-1-yl)benzamide]

From patent US20250295660A1, “METHODS OF TREATING NF1-MUTANT TUMORS USING LSD1 INHIBITORS” (ORYZON GENOMICS, S.A., priority 2022, published 2025)
